Reference: patent publication US20050043374A1, “Aryl substituted oxazolidinones with antibacterial activity” (priority 2001, published 2005)
In brackets after ≈: the same amount, converted by molar mass.

Tests used:
Format in all cases: cell-based
[1] = test system: Staphylococcus aureus MRQR (methicillin resistant and quinolone resistant); assay: MIC, agar dilution, staphylococci; settings: inoculum 10^4 CFU/spot, 37° C., 24 hours
Method: (§1) The following results were obtained on a standard in-vitro test system. The activity is described in terms of the minimum inhibitory concentration (MIC) determined by the agar-dilution technique with an inoculum size of 10^4 CFU/spot. Typically, compounds are active in the range 0.01 to 256 μg/ml.
(§2) Staphylococci were tested on agar, using an inoculum of 10^4 CFU/spot and an incubation temperature of 37° C. for 24 hours—standard test conditions for the expression of methicillin resistance.

[2] = test system: Staphylococcus aureus MSQS (methicillin sensitive and quinolone sensitive); assay: MIC, agar dilution, staphylococci; settings: inoculum 10^4 CFU/spot, 37° C., 24 hours
Method: as §1, §2

[3] = test system: Streptococcus pneumoniae; assay: MIC, agar with 5% defibrinated horse blood, streptococci; settings: 10^4 CFU/spot, 37° C., 5% carbon dioxide, 48 hours
Method: as §1
(§3) Streptococci and enterococci were tested on agar supplemented with 5% defibrinated horse blood, an inoculum of 10^4 CFU/spot and an incubation temperature of 37° C. in an atmosphere of 5% carbon dioxide for 48 hours—blood is required for the growth of some of the test organisms. Fastidious Gram negative organisms were tested in Mueller-Hinton broth, supplemented with hemin and NAD, grown aerobically for 24 hours at 37° C., and with an innoculum of 5×10^4 CFU/well.

[4] = test system: Streptococcus pyogenes; assay: as above; settings: 10^4 CFU/spot, 37° C., 5% carbon dioxide, 48 hours
Method: as §1, §3

[5] = test system: Haemophilus influenzae; assay: MIC, Mueller-Hinton broth with hemin and NAD, fastidious Gram negative organisms; settings: aerobic, 24 hours, 37° C., 5×10^4 CFU/well
Method: as §1, §3

[6] = test system: Moraxella catarrhalis; assay: as above; settings: aerobic, 24 hours, 37° C., 5×10^4 CFU/well
Method: as §1, §3

MIC [1]: 0.25 µg/mL (≈ 0.673 µM) | MIC [2]: 0.125 µg/mL (≈ 0.337 µM) | MIC [3]: 0.125 µg/mL (≈ 0.337 µM) | MIC [4]: 0.125 µg/mL (≈ 0.337 µM) | MIC [5]: 2 µg/mL (≈ 5.39 µM) | MIC [6]: 0.5 µg/mL (≈ 1.35 µM)
Compound: N#Cc1nnc(-c2ccc(N3C[C@H](Cn4ccnn4)OC3=O)cc2F)s1 [Example 1, (5R)-3-(3-Fluoro-4-(5-cyano-1,3,4-thiadiazol-2-yl)phenyl)-5-(1H-1,2,3-triazol-1-ylmethyl)-1,3-oxazolidin-2-one]
